In PubChem BioAssay (NCI):
Where “and” joins values, the source holds several entries; their conditions need not be identical. Equal entries are not always repeated.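 Grown in 96-well plates, cells were treated for 48 hours with each compound at five concentrations. Insufficient inhibition: endpoint recorded as highest concentration tested. GI50: concentration for 50% inhibition of growth. TGI: concentration producing complete growth inhibition.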

Key:
Assay in all cases: NCI tumour cell line growth inhibition, 48 h
[1] = system: 786-0 renal
[2] = system: CCRF-CEM leukemia
[3] = system: EKVX NSCLC
[4] = system: HT29 colon
[5] = system: LOX IMVI melanoma
[6] = system: MDA-MB-435
[7] = system: MOLT-4 leukemia
[8] = system: NCI-H23 lung
[9] = system: NCI/ADR-RES ovarian
[10] = system: TK-10 renal

| Structure (SMILES) | GI50 [1] [µM] | TGI [1] [µM] | GI50 [2] [µM] | TGI [2] [µM] | GI50 [3] [µM] | TGI [3] | GI50 [4] [µM] | TGI [4] | GI50 [5] [µM] | TGI [5] [µM] | GI50 [6] [µM] | TGI [6] [µM] | GI50 [7] [µM] | TGI [7] [µM] | GI50 [8] [µM] | TGI [8] [µM] | GI50 [9] [µM] | TGI [9] [µM] | GI50 [10] [µM] | TGI [10] [µM] |
| --- | --- | --- | --- | --- | --- | --- | --- | --- | --- | --- | --- | --- | --- | --- | --- | --- | --- | --- | --- | --- |
| C#Cc1cccc(NC(=O)c2cccc(NC(=O)CCl)c2)c1 | 14.2 | 28.1 | 7.29 | 54.5 | 27.2 | > 82.5 µM | 8.18 | 33.4 µM | 8.87 | 21.7 | 32.3 | > 82.5 | 6.71 | 61.2 | 13.4 | 29.9 | 17.3 | 53.1 | 25.9 | > 82.5 |
| O=C(c1ccc2ccccc2c1)c1c(C(F)(F)F)n([O-])c2cc(C(F)(F)F)ccc2[n+]1=O | 1.62 | 3.15 | – | 0.385 | 1.57 | 3.43 µM | 1.74 | 3.46 µM | 1.63 | 3.22 | 1.71 | 3.31 | 1.49 | 3.9 | 2.41 | 5.87 | 2.08 | 4.8 | 1.68 | 3.06 |
| COc1c(C)c(OC)c(C(=O)CC(C)C)c(OC)c1C | – | > 100 | – | > 100 | – | > 100 µM | – | > 100 µM | – | > 100 | – | > 100 | – | > 100 | – | > 100 | – | > 100 | – | > 100 |
| CCCS(=O)(=O)Nc1cccc(Nc2ncnc3cc(NC(=O)CCl)ccc23)c1Cl | 0.935 | 3.88 | 1.03 | 4.68 | 3.72 | 12.3 µM | 1.1 | 4.74 µM | 0.892 | 3.9 | 1.47 | 5.76 | 1.04 | 7.13 | 1.26 | 5.25 | 6.95 | 25 | 3.21 | 7 |
| CCN(CC)CCn1c(=O)c2cc(OC)c(OC)cc2c2ccc3cc4c(cc3c21)OCO4 | 0.479 | 13.4 | 0.0824 | > 33.6 | 12.2 | 29.4 µM | 0.195 | 6.16 µM | 0.139 | 0.584 | 0.795 | 20.9 | 0.0715 | 3.72 | 0.348 | 11.6 | 0.42 | 43.9 | 13.4 | 30.3 |
| CC1OC(CC(=O)O)Cc2c1c(O)c1c(O)cc(-c3cc(=O)c4c(=O)c5c(c(=O)c=4c3=O)CC(CC(=O)O)OC5C)c(O)c1c2O (stereo not given) | 32.1 | 46.7 | – | > 48.2 | 26.1 | 18.3 µM and 74.5 µM | 26.1 | 55.6 µM and 94.7 µM | – | 36.5 | 16.8 | 36.7 | – | 21.7 | 32.7 | 33.9 | 59.6 | – | 34 | > 93 |
| Cc1nc2ccccc2c(/C=C/c2ccccc2)c1C(=O)/C=C/c1ccc(C(F)(F)F)cc1 | 1.22 | 2.71 | 0.381 | > 100 | 1.56 | 3.11 µM | 0.632 | 4.46 µM | 1.09 | 2.34 | 1.86 | 3.55 | 0.623 | > 100 | 1.25 | 3.11 | 2.19 | 7.19 | 2.35 | 4.04 |
| CCOC(=O)Nc1ccc2c(c1)C(=O)N(CC)c1ccccc1O2 | 0.434 | > 100 | 0.0889 | > 100 | 0.264 | > 100 µM | 0.0791 | > 39.6 µM | 0.198 | > 100 | 0.0311 | 0.11 | 0.125 | > 100 | 0.542 | > 100 | 0.124 | > 100 | > 100 | > 100 |
| COc1ccc(-c2cc(-c3ccc(OC)cc3)nc(NCCCNc3ccnc4cc(Cl)ccc34)n2)cc1 | 1.62 | 2.99 | 2.26 | 6.98 | 1.67 | 4.17 µM | 1.56 | 3.06 µM | 1.79 | 3.25 | 1.73 | 3.18 | 1.84 | 6.09 | 1.8 | 3.72 | 1.62 | 3.28 | 1.97 | 3.56 |
| CCOC(=O)c1c2c(n3ccc(NC(=O)CCN4CCCCC4)cc13)C(=O)c1ncccc1C2=O | 0.124 | 2.32 | 1.18 | 3.68 | 3.03 | 8.47 µM | 1.3 | 3.1 µM | 0.301 | 0.777 | 1.16 | 2.47 | 1.42 | 4.04 | 0.0369 | 2.03 | 1.14 | 3.66 | 0.171 | 2.25 |
| NNc1nc2ccccc2o1 | – | > 100 | – | > 100 | – | > 100 µM | – | > 100 µM | – | > 100 | – | > 100 | – | > 100 | – | > 100 | – | > 100 | – | > 100 |
| CC[C@]12C=CCN3CC[C@@]4(c5ccc(OC)cc5N(C)[C@H]4[C@@](O)(C(=O)OC)[C@@H]1OC(=O)CCC(=O)O[C@H]1CC[C@H]4[C@@H]5CC[C@H]6CC(=O)CC[C@]6(C)[C@H]5CC[C@]14C)[C@@H]32 | 1.97 | > 100 | 3.04 | > 100 | 1.78 | > 100 µM | 2.13 | 6.06 µM | 2.83 | 11.7 | 2.89 | > 100 | 2.59 | > 100 | 3.54 | > 100 | 2.91 | > 100 | 2.55 | 17.8 |
| COC(=O)C1=C(C(=O)ON)[C@@H]2C=C[C@@]1([C@@H](Cc1ccccc1)Nc1ccccc1)O2 | 1.85 | 3.57 | 2.43 | 8.2 | 1.83 | 4.16 µM | 1.89 | 3.97 µM | 1.5 | 2.88 | 4.33 | 16.5 | 2.86 | 7.71 | 14.1 | 28.9 | 17.4 | 35.9 | 1.7 | 3.08 |
| O=c1oc2ccc(Cl)cc2c(=O)n1-c1ccc(F)cc1F | 3.07 | 10.5 | 3.32 | 18.1 | 1.98 | 8.04 µM | 3.52 | 38.8 µM | 2.4 | 12.1 | 1.64 | 7.73 | 2.33 | 5.59 | 1.87 | 7.24 | 2.63 | 9.5 | 5.55 | 68.2 |
